According to US20130190345A1, “MATRINIC ACID/MATRINE DERIVATIVES AND PREPARATION METHODS AND USES THEREOF” (priority 2010, published 2013):
≈ marks a conversion by molar mass, not a printed value.

Key:
[1] = tested on: Hsc70; experiment: Detection of Hsc70 gene expression level upon action of compound on 2.2.15 cells (real-time fluorescent quantified PCR); format: cell-based; set-up: Hsc70 mRNA / Hsc70 down-regulation rate (%): unit not given here; settings: 2.2.15 cells; for Hsc70 inhibition rate (down-regulation of Hsc70 expression activity, expressed in relative OMT ratio): relative to OMT (= 1); for Hsc70 mRNA: down-regulation of liver cell Hsc70 gene
In short: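 2.2.15 cells grown 24 hr in 10% FCS medium, then exposed to compounds (20 mg/ml MEM stock diluted in medium) for 12, 24 or 36 hr; 400 μg/ml OMTR as control. Hsc70 mRNA and HBV DNA changes measured by real-time fluorescent quantitative PCR.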

[2] = tested on: Lamivudine-resistant strain (LRS M204V L180M) HBV; experiment: Inhibition effects on drug resistant type HBV (Real-time PCR of HBV DNA, Huh-7.5 cells); format: cell-based; settings: 36 h; lamivudine 0.16n/mL, compound 6b 37 μg/mL
Description: (§1) Lamivudine-resistant strain (LRS M204V L180M) was used to transfect Huh-7.5 cells, lamivudine was used as positive control, lamivudine (0.16n/mL) and compound 6b (37 μg/mL) were separately used to treat wild type and LRS type HBV, after 36 h, Real-time PCR was used to determine HBV DNA levels, respectively, and the results were shown in FIG. 12.

[3] = tested on: wild type HBV; experiment: Inhibition effects on wild type HBV (Real-time PCR of HBV DNA, Huh-7.5 cells); format: cell-based; settings: 36 h; lamivudine 0.16n/mL, compound 6b 37 μg/mL
Description: as §1

[4] = tested on: HCV; experiment: Inhibition effects of compounds on HCV in Huh7.5 cultured cell after HCV infection; format: cell-based; settings: for EC50 (half effective concentration): virus not given, stands beside HCV inhibition rate
Description: 1×10^5/ml Huh7.5 cells (purchased from Vertex Pharmaceutical Co., USA) were inoculated in an amount of 0.1 ml on 96-well culture plate, placed in an incubator with 37° C., 5% CO2 content and saturation humidity, and cultured for 24 h, HCV virus in 45 IU/cell was used to infect Huh7.5, different drug solutions (DM122) formulated with culture medium were added, and cell control and HCV infection control were set. Cultivation was continuously performed in the incubator with 37° C., 5% CO2 content and saturation humidity for 72 h, kit for RNA extraction was used to extract intracellular RNA, one-step qRT-PCR was used to determine intracellular contents of HCV and GAPDH RNA, and the inhibition effects of drug on HCV infection was analyzed. […] In comparison with the virus control group, the inhibition effects on HCV infection upon action of different drugs were analyzed. […] This experiment was repeated for 3 times, * indicated […] in comparison with control, ** indicated p<0.01 in comparison with control.

[5] = Acute toxicity of compound in mice; format: in vivo
Description: Kunming mice (purchased from Institute of Animal, Chinese Academy of Medical Sciences), 18-20 g, were weighed and randomly divided in groups, 10 mice per group, half male and half female, intraperitoneally injected with DM122 solution, in concentration of 0, 250 mg/kg, 500 mg/kg and 1000 mg/kg once. The death of animals was observed. On the 7th day, the animals were weighed, blood samples were taken and functional indexes (GOT, GPT, BUN and CRE) of liver and kidney in blood were determined.
Since Compound 6b had relatively high activity on anti-HBV and anti-HCV. The inventors had used it as a candidate of anti-hepatitis drug to evaluate its safety in animal body. Kunming mice were used for test of safety and acute toxicity of Compound 6b (13-methoxy matrine), via oral administration, administration doses were separately 250, 500 and 750 mg/kg once, then the mice were strictly monitored for 7 days.

[6] = tested on: Hsc70; experiment: Hsc70 protein in virus particles in supernatant from HCV-infected Huh7.5 cultured cell liquid; format: cell-based; settings: HCV-infected Huh7.5 cells, 96 h, Western blotting (FIG. 8)
Description: Huh7.5 cells were inoculated in an amount of 3×10^4/cm^2, cultured in 10 cm culture dish (58.1 cm^2/well) for 6 h, infected with HCV and simultaneously added with DM-122 drug solutions with different concentration and positive control Intron A, after action for 96 h, the supernatant from cultured cell liquid was subjected to ultra-high speed centrifugation to separate virus particles, Western blotting was used to analyze the contents of Hsc70 and GAPDH proteins in virus particles.

[7] = tested on: DHBV; experiment: DHBV animal test; format: in vivo, Peking ducks
Description: Infection and administration: Peking ducks (purchased from Institute of Animals, Chinese Academy of Medical Sciences) were infected via foot vein with 0.2 ml DHBV positive serum. […] The control group was administered with physiological saline (1 ml); positive control was administered with 3TC (lamivudine), in dose of 50 mg/kg (5 mg/ml, 1 ml).

[8] = tested on: 2.2.15 cells; experiment: Drug TC50 by MTT detection; format: cell-based; settings: Reed-Muench
Description: 2.2.15 cells (all cells were purchased from Vertex Pharmaceutical Co., USA) in exponential growth phase were inoculated on 96-well culture plate, 2×10^5 cells/well, added with culture media containing PFA diluted in different concentration rates, 3 wells for each diluted concentration, placed in 37° C. CO2—containing incubator and cultivated for 48 h; the supernatant was discarded, 100 μl of MTT (0.5 mg/ml) in culture medium was added, cultivation was continuously performed at 37° C. for 4 h; each well was added to 100 μl of 50% DMF-20% SDS destaining solution, stood at 37° C. overnight; ELISA was used to measure optical density at wavelength of 570 nm (0D570).
In each experiment, 3 cell control wells and 3 blank controls well were set, the results were used in formula, (cell control OD570-drug-medicated cell OD570)/cell control OD570, to calculate cell death rate (%), and Reed-Muench method was used to calculate half toxic concentration TC50.

[9] = tested on: Hsc70; experiment: Inhibition effects of compound on Hsc70 in Huh7.5 cultured cell (qRT-PCR, Western blotting); format: cell-based; set-up: key to Hsc70 down-regulation rate (%): “—” represents no significant inhibition rate
Description: 2×10^5/ml Huh7.5 cells (purchased from Vertex Pharmaceutical Co., USA) were inoculated in an amount of 3 ml on 6-well culture plate, placed in an incubator with 37° C., 5% CO2 content, saturation humidity, and cultured for 24 h, added with different drug solutions (DM122) formulated with culture medium, and cell control was set. Cultivation was continuously performed in the incubator with 37° C., 5% CO2 content, saturation humidity for 24 h, a kit for RNA extraction was used to extract intracellular RNA from the cells, and one-step qRT-PCR was used to determine intracellular contents of Hsc70 and GAPDHRNA. After the cultivation of cells was performed for 48 h, the cells were digested and harvested, then the cells were split with CytoBuster™ Protein Extraction Buffer that contained many kinds of protease inhibitors, total intracellular proteins were extracted, and Western blotting was used to analyze the contents of Hsc70 and GAPDH proteins. In comparison with the cell control, the inhibition effects on Hsc70 upon action of different drugs were analyzed.

With `O=C(O)CCCC1NCC2CCCN3CCCC1C23` (stereo not shown) [DM-100, matrinic acid] the melting point was 185.7 to 187.7 °C and the “Hsc70 inhibition rate (down-regulation of Hsc70 expression activity, expressed in relative OMT ratio)” value [1] was 1.02.

In the case of `COC1=CCC2C3CCCN4CCCC(CN2C1=O)C34` (stereo not shown) [Compound 10, 14-methoxy sophocarpine], the melting point is reported as 110 to 111 °C and the “Hsc70 mRNA” value [1] is reported as 39.7 ± 0.16.

In the case of `Nc1ccn([C@@H]2CS[C@H](CO)O2)c(=O)n1` [lamivudine, reference compound], the “inhibition rate on drug-resistant HBV” value [2] is reported as 28% and the “inhibition rate on wild type HBV” value [3] is reported as 64%.

In the case of `CC(=O)N1C[C@H]2CCCN3CCC[C@@H](C23)C1CCCC(=O)O` (stereo partly shown), the melting point is reported as 127.4 to 129.6 °C.

In the case of `O=C1C(O)C(O)CC2C3CCCN4CCCC(CN12)C34` (stereo not shown) [Compound 8, 13,14-dihydroxyl matrine], the melting point is reported as 156 to 158 °C and the “Hsc70 mRNA” value [1] is reported as 38.9 ± 0.13.

With `CCOC1CC(=O)N2CC3CCCN4CCCC(C34)C2C1` (stereo not shown) [Compound 6b, 13-ethoxy matrine] the “inhibition rate on drug-resistant HBV” value [2] was 32%, the “inhibition rate on wild type HBV” value [3] was 35% and the “Hsc70 mRNA” value [1] was 74.1 ± 0.11. For the same molecule, the “anti-HCV activity (HCV nucleoprotein and Hsc70 protein levels)” value ([4]; HCV-infected Huh7.5 cells, 200 μg/mL, Western blotting (FIG. 7B)) was “significant activity on anti-HCV”, the “activity against HCV (HCV RNA level)” value ([4]; HCV-infected Huh7.5 cells, 200 μg/mL, real-time RT-PCR) was “best activity against HCV” and the “oral LD50” value ([5]; mice, oral administration once) was “greater than 1000 mg/kg”. For the same molecule, the death of mice ([5]; oral once, 250, 500 and 750 mg/kg) was “no mouse died”, the change of bodyweight ([5]; oral once, 250, 500 and 750 mg/kg (FIG. 11A)) was “no significant change of bodyweight” and the “AST, ALT, BUN and CRE indexes in blood” value ([5]; oral, 750 mg/kg dose group (FIG. 11B)) was “no significant abnormality”.

With `COc1ccc(CN2CC3CCCN4CCCC(C2CCCC(=O)O)C34)cc1` (stereo not shown) [DM-122, N-(4-methoxybenzyl) matrinic acid] the “Hsc70 protein content in virus particles in supernatant” value [6] was “reduced the Hsc70 protein content in virus particles”, the “HBVDNA in liver, inhibition rate” value ([7]; duckling, oral 37.5 mg/kg twice per day, 15 days (FIG. 1)) was −5.14% and the “activity against hepatitis B virus in DHBV-infected ducks (HBV DNA in liver and serum)” value ([7]; oral 150, 75, 37.5 mg/kg twice per day, 15 days) was “good activity against hepatitis B virus”. For the same molecule, the “CC50 (concentration to cause poisoning in half cells)” value (from here on “CC50”) [8] was over 1000 µg/mL, the “Hsc70 down-regulation rate (%)” value ([9]; 200 ug/ml (upper data)) was 36.8 ± 1.4% and the “Hsc70 down-regulation rate (%)” value ([9]; 400 ug/ml (lower data)) was “—”. The “inhibition of intracellular Hsc70 mRNA” value ([9]; Huh7.5 cells, 24 h, qRT-PCR (FIG. 4)) was “dose-dependent inhibition effects”, the “inhibition of intracellular Hsc70 protein” value ([9]; Huh7.5 cells, 48 h, Western blotting (FIG. 5)) was “dose-dependent inhibition effects” and the “Hsc70 inhibition rate (down-regulation of Hsc70 expression activity, expressed in relative OMT ratio)” value [1] was 1.56. The “HCV inhibition rate (%)” value ([4]; 200 ug/ml (upper data)) was 77.2 ± 4.8%, the “HCV inhibition rate (%)” value ([4]; 400 ug/ml (lower data)) was 88.0 ± 4.0% and the “inhibition of intracellular HCV Core and Hsc70 proteins” value ([4]; HCV-infected Huh7.5 cells, 72 h, Western blotting (FIG. 7A)) was “dose-dependent inhibition effects”. The “effect on intracellular HCV RNA” value ([4]; HCV-infected Huh7.5 cells, 72 h, qRT-PCR (FIG. 6)) was “dose-dependent effects”, the “EC50 (half effective concentration)” value [4] was 252.35 µg/mL (≈ 653 µM) and the “influence on body weight of mice” value ([5]; mouse, in vivo) was “no influence on body weight of mice”. For the same molecule, the “influence on liver and kidney functions (GOT, GPT, BUN, CRE)” value ([5]; mouse, in vivo, ip) was “no influence on liver and kidney functions”.

In the case of `CC(=O)N1C[C@@H]2CCCN3CCC[C@@H](C23)C1CCCC(=O)O` (stereo partly shown) [DM-101, N-acetyl matrinic acid], the melting point is reported as 196.8 to 198.9 °C and the “Hsc70 inhibition rate (down-regulation of Hsc70 expression activity, expressed in relative OMT ratio)” value [1] is reported as 0.73.

For `O=C1CC(O)CC2C3CCCN4CCCC(CN12)C34` (stereo not drawn) [Compound 5, β-hydroxyl matrine], the melting point was 211 to 213 °C and the “Hsc70 mRNA” value [1] was 50.4 ± 0.19.

In the case of `Cc1ccc(CN2CC3CCCN4CCCC(C2CCCC(=O)O)C34)cc1` (stereo not shown) [DM-140, N-(4-methylbenzyl) matrinic acid], the “CC50” value [8] is reported as over 1000 µg/mL, the “Hsc70 down-regulation rate (%)” value ([9]; 200 ug/ml (upper data)) is reported as 53.8 ± 7.6% and the “Hsc70 down-regulation rate (%)” value ([9]; 400 ug/ml (lower data)) is reported as “—”. The “Hsc70 inhibition rate (down-regulation of Hsc70 expression activity, expressed in relative OMT ratio)” value [1] was 0.77, the “HCV inhibition rate (%)” value ([4]; 200 ug/ml (upper data)) was 83.4 ± 1.8% and the “HCV inhibition rate (%)” value ([4]; 400 ug/ml (lower data)) was 96.0 ± 1.2%. The “EC50 (half effective concentration)” value [4] was 18.68 µg/mL (≈ 50.4 µM).

In the case of `O=C(O)CCC[C@@H]1[C@H]2CCCN3CCC[C@@H](CN1Cc1ccccc1F)[C@@H]23` [DM-135, N-(2-fluorobenzyl)matrinic acid], the “CC50” value [8] is reported as 620.68 µg/mL (≈ 1660 µM), the “Hsc70 down-regulation rate (%)” value ([9]; 200 ug/ml (upper data)) is reported as 0.1 ± 5.6% and the “Hsc70 down-regulation rate (%)” value ([9]; 400 ug/ml (lower data)) is reported as “—”. The “Hsc70 inhibition rate (down-regulation of Hsc70 expression activity, expressed in relative OMT ratio)” value [1] was 0.41, the “HCV inhibition rate (%)” value ([4]; 200 ug/ml (upper data)) was 74.3 ± 8.2% and the “HCV inhibition rate (%)” value ([4]; 400 ug/ml (lower data)) was 90.5 ± 2.0%. For the same molecule, the “EC50 (half effective concentration)” value [4] was 29.86 µg/mL (≈ 79.7 µM).
